Values of other authors as cited in article PMC10930872, “Preparation, Structural Identification, and Screening of Egg-Derived Peptides with Facilitating Alcohol Metabolism Activity” (Foods, 2024).

Experiments:
hepatic ADH = settings: ref [42],[43]
Excerpt: This has to do with the fact that eggs contain all EAAs. […] Ala is involved in hepatic gluconeogenesis, which oxidizes NADH + H^+ to NAD^+, thereby maintaining cytoplasmic NAD^+ concentrations and promoting alcohol metabolism. […] It is reported that HAA (Tyr, Trp, Gl ...

[1] = molecular target: T1, alcohol dehydrogenase (ADH) (Saccharomyces cerevisiae, UniProt P00330); settings: pentapeptide screened by Zan et al., 2023; ref [59]; read-out: EC50 of ADH activation
T1 sequence (P00330 1-348): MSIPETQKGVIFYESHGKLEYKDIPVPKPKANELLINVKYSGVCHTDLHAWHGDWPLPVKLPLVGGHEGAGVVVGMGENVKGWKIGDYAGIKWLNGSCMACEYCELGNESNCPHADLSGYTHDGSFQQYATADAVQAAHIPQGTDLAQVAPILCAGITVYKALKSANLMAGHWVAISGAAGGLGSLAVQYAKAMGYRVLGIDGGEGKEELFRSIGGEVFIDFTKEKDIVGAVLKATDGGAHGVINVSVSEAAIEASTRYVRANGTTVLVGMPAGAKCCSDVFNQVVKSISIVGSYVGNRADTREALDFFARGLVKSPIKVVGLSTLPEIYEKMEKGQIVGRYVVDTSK
Excerpt: GSH, a tripeptide composed of Glu, Cys, and Gly, is widely found in normal human cells, with the highest concentration in the liver. It plays an important role in scavenging free radicals, inhibiting inflammatory factors, relieving hangovers, and protecting the liver.

ethanol dehydrogenase = tested on: ethanol dehydrogenase; parameters: method as in doi:10.1016/j.lwt.2022.113376; settings: ref [36]

Compound: CC(C)C[C@H](N)C(=O)O [Leu, L-leucine]
- Hepatic ADH activity (hepatic ADH): significantly increase hepatic ADH activity

Compound: ILPHF [pentapeptide screened by Zan et al., 2023]
- EC50 [1]: 1.6 µM

Compound: Lys-Pro-Cys [KPC, chicken-derived tripeptide]
- Stability of ethanol dehydrogenase (ethanol dehydrogenase): enhanced the stability of ethanol dehydrogenase
